From patent US7598271B1, “Crystalline paroxetine methane sulfonate” (Noven Therapeutics, LLC, priority 1997, dated 2009)
Where a name gives a salt, the structure may show the parent alone. Read-outs that look alike come from different tables or passages of the source.

Columns and labels:
[1] = Solubility of paroxetine salts in water; type: physicochemical; conditions: for solubility: water
[2] = background statement; cited from earlier work
[3] = causes undesired colouration during classical wet tabletting; cited from earlier work
[4] = Hygroscopicity test of paroxetine salts (40° C., 75% rel. hum); type: physicochemical
From the text: (§1) In the following tables 2 and 3, examples of results of hygroscopicity tests and stability tests (in comparison with known salts of paroxetine) are presented.

[5] = Stability of paroxetine salts by HPLC (total amount of degradation); type: physicochemical
From the text: as §1

[6] = background statement on known salts; cited from earlier work

## Fc1ccc([C@@H]2CCNC[C@H]2COc2ccc3c(c2)OCO3)cc1 [hydrochloride anhydrate, paroxetine hydrochloride, reference compound]
[1]; 20° C., hydrochloride
  Solubility in water: 8.2 mg/mL
[1]; 50° C., hydrochloride
  Solubility in water: 24.2 mg/mL

## Fc1ccc([C@@H]2CCNC[C@H]2COc2ccc3c(c2)OCO3)cc1 [hydrochloride hemihydrate, paroxetine hydrochloride hemihydrate, reference compound]
[1]; 20 °C
  solubility: 4.9 mg/mL
[1]; 50 °C
  solubility: 12.6 mg/mL
[2]
  solubility in water (in words): only limited solubility in water
[3]
  photostability (in words): limited photostability

## Fc1ccc([C@@H]2CCNC[C@H]2COc2ccc3c(c2)OCO3)cc1 [hydrochloride, paroxetine hydrochloride, reference compound]
[4]
  water content (in %) at t = 4 weeks: +2.5%

## CS(=O)(=O)O.Fc1ccc([C@@H]2CCNC[C@H]2COc2ccc3c(c2)OCO3)cc1 [methane sulfonate, Paroxetine Methane Sulfonate]
20° C.
  Solubility in 2-Propanol: 7 mg/mL
  Solubility in Acetone: 5 mg/mL
  Solubility in Ethanol: 36 mg/mL
  Solubility in Ethyl acetate: 2 mg/mL
  Solubility in n-Hexane: <0.05 mg/mL
82° C.
  Solubility in 2-Propanol: 330 mg/mL
56° C.
  Solubility in Acetone: 37 mg/mL
78° C.
  Solubility in Ethanol: 250 mg/mL
77° C.
  Solubility in Ethyl acetate: 25 mg/mL
69° C.
  Solubility in n-Hexane: 0.05 mg/mL
[1]; 20° C.
  Solubility in water: >1000/10 min mg/ml
[1]; 50° C.
  Solubility in water: 1300 mg/mL
[4]
  water content (in %) at t = 0: 0.35%
  water content (in %) at t = 4 weeks: +0.04%
[5]; 20° C., time not given
  total amount of degradation by HPLC: not observed
[5]; 80° C., 3 months
  total amount of degradation by HPLC: <0.2%, 3 months

## Cc1ccc(S(=O)(=O)O)cc1.Fc1ccc([C@@H]2CCNC[C@H]2COc2ccc3c(c2)OCO3)cc1 [p-toluene sulfonate, Paroxetine p-Toluene Sulfonate]
20° C.
  Solubility in 2-Propanol: 14 mg/mL
  Solubility in Acetone: 16 mg/mL
  Solubility in Ethanol: 50 mg/mL
  Solubility in Ethyl acetate: 22 mg/mL
  Solubility in n-Hexane: <0.05 mg/mL
82° C.
  Solubility in 2-Propanol: >500 mg/mL
56° C.
  Solubility in Acetone: 125 mg/mL
78° C.
  Solubility in Ethanol: >500 mg/mL
77° C.
  Solubility in Ethyl acetate: >500 mg/mL
69° C.
  Solubility in n-Hexane: <0.05 mg/mL
[1]; 20° C.
  Solubility in water: >1000 mg/mL
[1]; 50° C.
  Solubility in water: >1000 mg/mL
[4]
  water content (in %) at t = 0: 0.70%
  water content (in %) at t = 4 weeks: <0.02%
[5]; 20° C., time not given
  total amount of degradation by HPLC: not observed
[5]; 80° C., 3 months
  total amount of degradation by HPLC: <0.2%, 3 months

## Paroxetine Acetate
[6]
  stability (in words): unstable

## Paroxetine Maleate [reference compound]
[5]; 20° C., 12 months
  total amount of degradation by HPLC: 0.2%, 12 months
[5]; 80° C., 5 days
  total amount of degradation by HPLC: >50%, 5 days
[6]
  stability (in words): unstable
